From US6602220B1, “Miniature air-controlled drug selector and delivery device portable by small animals” (The Research Foundation of State University of New York, priority 2000, dated 2003) come the findings set out here.

The test system of one experiment is neocortical neuron. Put plainly: Single-cell recording with microdialysis drug delivery via minivalve, neocortex of freely moving rat. It is filed as in vivo. The method, then: The experiment was performed on a freely moving rat which carried the minivalve 100 of the present invention on its head as illustrated in FIG. 1.
Experiment [1] deals with single neuron, in the hippocampus. Put plainly: Single-cell recording/microdialysis study with minivalve, hippocampus of freely moving rat. It is filed as in vivo. The text has this:
Referring now to FIGS. 6a-6c, there is illustrated graphical data from a single-cell recording/microdialysis study performed with the minivalve 100 of the present invention. The recordings were made from the same single neuron, in the hippocampus of the freely moving rat 102 having the minivalve 100 mounted on its head, as illustrated in FIG. 1.

Bounds are passed on as bounds.

As to `CN[C@H](CC(=O)O)C(=O)O` [NMDA], the “effect on firing of a neocortical neuron, first drug perfusion” value in the experiment on neocortical neuron (500 μM NMDA via microdialysis probe, freely moving rat) was “brief firing rate increase at point D, followed by a silent period”. In addition, in the experiment on neocortical neuron (500 μM NMDA, first perfusion, switch from position 1 to position 2), the “time to effect after the minivalve switch” value was no more than 1 min. Further, in the experiment on neocortical neuron (second NMDA delivery after wash-out), the “effect on firing of a neocortical neuron, second delivery” value is “ineffective”. Besides, the “effect of third exposure” value in the experiment with neocortical neuron (third NMDA exposure three hours later) is “clear excitatory effects associated with an EEG seizure”. Also, the “effect on firing of hippocampal neuron, subsequent application” value in experiment [1] (NMDA application through the probe after the second ethanol delivery) is “initial firing rate increase, followed by electrical silence”.

Consider `CCO` [ethanol], for which the “effect on cell firing in the neocortex” value in the experiment on neocortical neuron (ethanol delivered via microdialysis for two minutes, freely moving rat) was “instant cell firing suppressant effect”. Besides, the “time to effect after the minivalve was switched” value in the experiment on neocortical neuron (ethanol, neocortex) is given as “within one minute”. Besides, the “effect on firing of hippocampal neuron, first perfusion” value in experiment [1] (first ethanol perfusion into hippocampus recording site) is reported as “suppressed the firing of the recorded neuron”. The “time to effect after minivalve activation” value in experiment [1] (first ethanol perfusion, hippocampus) is on record as “as quickly as two minutes”. The “effect on firing of hippocampal neuron, second delivery” value in experiment [1] (second ethanol delivery, same neuron) is reported as “ineffective”.
